From ChEMBL document CHEMBL1141902, “Functionalization at position 3 of the phenyl ring of the potent mGluR5 noncompetitive antagonists MPEP” (Bioorg Med Chem Lett, 2005)

What was measured:
[1] = target: T1, Metabotropic glutamate receptor 5 (Rattus norvegicus, UniProt P31424); assay: Concentration required for 50% inhibition of rat metabotropic glutamate receptor 5 was determined using inositol phosphate hydrolysis assay
[2] = target: T1, Metabotropic glutamate receptor 5; assay: In vitro binding affinity of compound towards rat metabotropic glutamate receptor 5 was determined by displacement of [3H]M-MPEP from rat whole brain

T1 sequence (P31424 whole entry): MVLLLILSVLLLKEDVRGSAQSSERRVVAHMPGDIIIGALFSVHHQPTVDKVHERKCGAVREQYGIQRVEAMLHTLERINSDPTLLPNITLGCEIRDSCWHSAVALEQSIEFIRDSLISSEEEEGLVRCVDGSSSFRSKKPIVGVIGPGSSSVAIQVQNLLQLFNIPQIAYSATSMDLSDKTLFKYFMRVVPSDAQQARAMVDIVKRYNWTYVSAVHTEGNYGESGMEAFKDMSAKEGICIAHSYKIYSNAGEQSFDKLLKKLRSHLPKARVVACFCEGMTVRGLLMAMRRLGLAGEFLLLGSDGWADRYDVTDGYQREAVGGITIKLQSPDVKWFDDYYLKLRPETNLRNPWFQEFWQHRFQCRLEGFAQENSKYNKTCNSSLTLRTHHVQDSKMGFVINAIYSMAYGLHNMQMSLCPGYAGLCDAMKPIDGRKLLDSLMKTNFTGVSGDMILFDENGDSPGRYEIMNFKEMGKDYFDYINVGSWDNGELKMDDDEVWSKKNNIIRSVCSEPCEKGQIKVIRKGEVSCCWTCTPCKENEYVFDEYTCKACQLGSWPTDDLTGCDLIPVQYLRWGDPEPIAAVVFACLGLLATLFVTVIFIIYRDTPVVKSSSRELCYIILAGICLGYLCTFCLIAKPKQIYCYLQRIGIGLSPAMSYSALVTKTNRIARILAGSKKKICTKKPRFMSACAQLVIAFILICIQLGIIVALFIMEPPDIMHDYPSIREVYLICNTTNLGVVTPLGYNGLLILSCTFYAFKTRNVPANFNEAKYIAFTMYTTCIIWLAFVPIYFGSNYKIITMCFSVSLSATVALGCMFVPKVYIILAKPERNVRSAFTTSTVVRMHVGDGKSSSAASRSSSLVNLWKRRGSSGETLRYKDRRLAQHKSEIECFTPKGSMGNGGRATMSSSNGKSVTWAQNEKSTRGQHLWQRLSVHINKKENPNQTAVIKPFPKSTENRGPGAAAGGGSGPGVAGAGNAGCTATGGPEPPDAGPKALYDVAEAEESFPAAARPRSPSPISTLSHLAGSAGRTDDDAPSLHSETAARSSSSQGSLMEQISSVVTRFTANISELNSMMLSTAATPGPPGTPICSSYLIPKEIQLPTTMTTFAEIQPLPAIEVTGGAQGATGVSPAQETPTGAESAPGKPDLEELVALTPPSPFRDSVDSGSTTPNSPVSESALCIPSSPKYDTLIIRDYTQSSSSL

SMILES | IC50 [1] [nM] | Ki [2] [nM]
Cc1cccc(C#Cc2cccc(OCc3cccc(I)c3)c2)n1 | 1980 | 
Cc1cccc(C#Cc2cccc(OC(=O)CCCBr)c2)n1 | 3350 | 
Cc1ccc(S(=O)(=O)Oc2cccc(C#Cc3cccc(C)n3)c2)cc1 | > 10000 | 
COC(=O)c1cccc(C#Cc2cccc(C)n2)c1 | 208 | 
Cc1cccc(C#Cc2cccc(OCc3ccccc3)c2)n1 | 1840 | 
Cc1cccc(C#Cc2cncc(-c3cccs3)c2)n1 | 271 | 155
Cc1cccc(C#Cc2cccc(OC(=O)CCCc3ccccc3)c2)n1 | 1170 | 
Cc1cccc(C#Cc2cccc(OC(=O)Cc3ccccc3)c2)n1 | 740 | 
Cc1cccc(C#Cc2cccc(-c3cccs3)c2)n1 | 656 | 147
Cc1cccc(C#Cc2cccc(OCCCCc3ccccc3)c2)n1 | 1160 | 
C=CCOc1cccc(C#Cc2cccc(C)n2)c1 | 290 | 
Cc1cccc(C#Cc2cccc(OCCc3ccc(F)cc3)c2)n1 | 2050 | 
Cc1cccc(C#Cc2cncc(-c3ccccc3)c2)n1 | 20 | 1.7
COc1cccc(C(=O)Oc2cccc(C#Cc3cccc(C)n3)c2)c1 | 1720 | 
COc1cccc(C#Cc2cccc(C)n2)c1 [M-MPEP] | 8 | 
Cc1cccc(C#Cc2cccc([N+](=O)[O-])c2)n1 | 13 | 
Cc1cccc(C#Cc2cccc(OC(=O)c3cccc(I)c3)c2)n1 | 1100 | 
Cc1cccc(C#Cc2cccc(OCCCc3ccccc3)c2)n1 | 1190 | 

SMILES | IC50 [1] [nM] | Ki [2] [nM]
COc1cccc(COc2cccc(C#Cc3cccc(C)n3)c2)c1 | 1300 | 
CC(=O)c1cccc(C#Cc2cccc(C)n2)c1 | 146 | 
Cc1cccc(C#Cc2cccc(OCC3CC3)c2)n1 | 420 | 
Cc1cccc(C#Cc2cccc(C#N)c2)n1 | 5 | 
Cc1cccc(C#Cc2cccc(N)c2)n1 | 188 | 
Cc1cccc(C#Cc2cccc(OS(C)(=O)=O)c2)n1 | 180 | 
COC(=O)COc1cccc(C#Cc2cccc(C)n2)c1 | 2400 | 
Cc1cccc(C#Cc2cccc(-c3ccco3)c2)n1 | 371 | 36
Cc1cccc(C#Cc2cccc(-c3ccccc3)c2)n1 | 629 | 993
Cc1cccc(C#Cc2cccc(OC(=O)c3ccccc3)c2)n1 | 1500 | 
Cc1cccc(C#Cc2cccc(OC(=O)CCc3ccccc3)c2)n1 | 890 | 
Cc1cccc(C#Cc2cncc(-c3ccco3)c2)n1 | 205 | 6.5
COc1cccc(-c2cncc(C#Cc3cccc(C)n3)c2)c1 | 282 | 74
COc1cccc(-c2cccc(C#Cc3cccc(C)n3)c2)c1 | 493 | 2360
Cc1cccc(C#Cc2cccc(OC(=O)c3ccco3)c2)n1 | 1010 | 
Cc1cccc(C#Cc2cncc(-c3cccc(C)n3)c2)n1 | 257 | 13
Cc1cccc(C#Cc2cccc(OCCc3ccccc3)c2)n1 | 1590 | 
